# Measurements taken from patent US20260193293A1, “PEPTIDES CAPABLE OF INHIBITING PROTEIN-PROTEIN INTERACTIONS AT GABAB1A SUBUNIT AND USES THEREOF” (UNIVERSITY OF COPENHAGEN, priority 2022, published 2026).
# Read-outs that look alike come from different tables or passages of the source. Non-standard residues stand in square brackets, D forms with d. Residues, ends and D or L forms follow the SMILES beside them. Phe(4-NH2) = Nc1ccc(C[C@H](N)C(=O)O)cc1; Sar = CNCC(=O)O
# Target: Sushi domains (SD1/2) protein
# Test: Fluorescence polarization (FP) competition assay with AJAP-1probe, calculated Ki
# Format: binding
# Conditions: read-out: Ki (nM) mean ± SEM
# In short: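 Competition against 25 nM TAMRA-labelled peptide probe binding SD1/2, in PBS pH 7.4 with 1% BSA at rt, read at 530/580 nm. IC50 from sigmoidal dose-response fits, at least triplicate; Ki calculated from IC50 using probe Kd from saturation binding.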
# [1] = Table 12, deep mutational scanning validation variants of PIANPWT
# [2] = Table 4, truncation and elongation scans of APP epitope
# [3] = Table 6, elongation and truncation scan of PIANP binding epitope
# [4] = Table 7, Ala-, D-amino acids and N-methylation scans of APPWT
# [5] = Table 11, deep mutational scanning validation variants of AJAP-1WT
# [6] = Table 13, peptides for affinity maturation
compound,measurement,setting,value
CC[C@H](C)[C@H](NC(=O)[C@H](C)NC(=O)[C@H](Cc1c[nH]c2ccccc12)NC(=O)[C@@H]1CCCN1C(C)=O)C(=O)N[C@H](C(=O)N[C@@H](Cc1c[nH]c2ccccc12)C(=O)NCC(=O)N1CCC[C@H]1C(=O)N[C@H](C(=O)N[C@@H](CO)C(=O)N[C@@H](CO)C(=O)N[C@@H](CCCNC(=N)N)C(=O)N[C@@H](CCC(=O)O)C(=O)N[C@@H](CC(=O)O)C(N)=O)[C@@H](C)O)C(C)C [PWAIVWGPTSSRED] (Ac-PWAIVWGPTSSRED-NH2),Ki,[1],383 ± 3 nM
CC(=O)N[C@@H](CCC(=O)O)C(=O)N[C@@H](CCC(=O)O)C(=O)N[C@@H](CC(=O)O)C(=O)N[C@@H](CC(=O)O)C(=O)N[C@@H](CO)C(=O)N[C@@H](CC(=O)O)C(=O)N[C@H](C(=O)N[C@@H](Cc1c[nH]c2ccccc12)C(N)=O)C(C)C (Ac-EEDDSDVW-NH2),Ki,[2],> 62500 nM
CC[C@H](C)[C@H](NC(=O)[C@H](C)NC(=O)[C@H](CO)NC(=O)[C@@H]1CCCN1C(C)=O)C(=O)N[C@H](C(=O)N[C@@H](Cc1c[nH]c2ccccc12)C(=O)NCC(=O)N1CCC[C@H]1C(=O)N[C@H](C(=O)N[C@H](C(=O)N[C@@H](CO)C(=O)N[C@@H](CCCNC(=N)N)C(=O)N[C@@H](CCC(=O)O)C(=O)N[C@@H](CC(=O)O)C(N)=O)C(C)C)[C@@H](C)O)C(C)C [PSAIVWGPTVSRED] (Ac-PSAIVWGPTVSRED-NH2),Ki,[1],906 ± 20 nM
CC[C@H](C)[C@H](NC(=O)[C@H](C)NC(=O)[C@H](Cc1c[nH]c2ccccc12)NC(=O)[C@@H]1CCCN1C(C)=O)C(=O)N[C@H](C(=O)N[C@@H](Cc1c[nH]c2ccccc12)C(=O)NCC(=O)N1CCC[C@H]1C(=O)N[C@H](C(=O)N[C@H](C(=O)N[C@@H](CO)C(=O)N[C@@H](CCCNC(=N)N)C(N)=O)C(C)C)[C@@H](C)O)C(C)C (Ac-PWAIVWGPTVSR-NH2),Ki,[3],433 ± 2 nM
CC(=O)N[C@@H](CCC(=O)O)C(=O)N[C@@H](CC(=O)O)C(=O)N[C@@H](CC(=O)O)C(=O)N[C@@H](CO)C(=O)N[C@@H](CC(=O)O)C(=O)N[C@H](C(=O)N[C@@H](Cc1c[nH]c2ccccc12)C(=O)N[C@@H](Cc1c[nH]c2ccccc12)C(=O)NCC(=O)NCC(=O)N[C@@H](C)C(=O)N[C@@H](C)C(=O)N[C@H](C(=O)N[C@@H](CC(=O)O)C(N)=O)[C@@H](C)O)C(C)C (Ac-EDDSDVWWGGAATD-NH2),Ki,[4],653 ± 25 nM
EDDS(Aphe)VWWGGADTD (Ac-EDDS[Phe(4-NH2)]VWWGGADTD-NH2),Ki,"Table 16, ncAAs incorporated peptides",184 ± 3 nM
CC[C@H](C)[C@H](NC(=O)[C@H](Cc1ccccc1)NC(=O)[C@H](CC(=O)O)NC(=O)[C@@H](NC(=O)[C@H](CCC(=O)O)NC(C)=O)[C@@H](C)O)C(=O)N[C@@H](C)C(=O)N[C@@H](Cc1c[nH]c2ccccc12)C(=O)NCC(=O)N1CCC[C@H]1C(=O)N[C@H](C(=O)NCC(=O)N[C@@H](CC(=O)O)C(=O)N[C@@H](CCC(=O)O)C(=O)N[C@@H](CC(=O)O)C(N)=O)[C@@H](C)O [ETDFIAWGPTGDED] (Ac-ETDFIAWGPTGDED-NH2),Ki,[5],26 ± 1 nM
CC[C@H](C)[C@H](NC(=O)[C@H](C)NC(=O)[C@H](Cc1c[nH]c2ccccc12)NC(=O)[C@@H]1CCCN1C(C)=O)C(=O)N[C@H](C(=O)N[C@@H](Cc1c[nH]c2ccccc12)C(=O)N(C)CC(=O)N1CCC[C@H]1C(=O)N[C@H](C(=O)N[C@H](C(=O)N[C@@H](CO)C(=O)N[C@@H](CCCNC(=N)N)C(=O)N[C@@H](CCC(=O)O)C(=O)N[C@@H](CC(=O)O)C(N)=O)C(C)C)[C@@H](C)O)C(C)C [PWAIVW(N-Me-G)PTVSRED] (Ac-PWAIVW[Sar]PTVSRED-NH2),Ki,"Table 9, Ala-, D-amino acids and N-methylation scans of PIANPWT",58300 ± 4410 nM
CC[C@H](C)[C@H](NC(=O)[C@H](C)NC(=O)[C@H](Cc1c[nH]c2ccccc12)NC(=O)[C@@H]1CCCN1C(C)=O)C(=O)N[C@H](C(=O)N[C@@H](Cc1c[nH]c2ccccc12)C(=O)NCC(=O)N1CCC[C@H]1C(N)=O)C(C)C (Ac-PWAIVWGP-NH2),Ki,[3],597 ± 7 nM
CC[C@H](C)[C@H](NC(=O)[C@H](C)NC(=O)[C@H](Cc1c[nH]c2ccccc12)NC(=O)[C@@H]1CCCN1C(C)=O)C(=O)N[C@H](C(=O)N[C@@H](Cc1c[nH]c2ccccc12)C(N)=O)C(C)C [PWAIVW] (Ac-PWAIVW-NH2),Ki,[3],706 ± 16 nM
CC[C@H](C)[C@H](NC(=O)[C@H](Cc1ccccc1)NC(=O)[C@H](CCC(=O)O)NC(=O)[C@@H](NC(=O)[C@H](CCCNC(=N)N)NC(C)=O)[C@@H](C)O)C(=O)N[C@@H](C)C(=O)N[C@@H](Cc1c[nH]c2ccccc12)C(=O)NCC(=O)N1CCC[C@H]1C(=O)N[C@H](C(=O)NCC(=O)N[C@@H](CC(=O)O)C(=O)N[C@@H](CCC(=O)O)C(=O)N[C@@H](CC(=O)O)C(N)=O)[C@@H](C)O [RTEFIAWGPTGDED] (Ac-RTEFIAWGPTGDED-NH2),Ki,[5],87 ± 3 nM
CC[C@H](C)[C@H](NC(=O)[C@H](Cc1c[nH]c2ccccc12)NC(=O)[C@H](CC(=O)O)NC(=O)[C@H](CC(=O)O)NC(=O)[C@H](CC(=O)O)NC(=O)[C@H](CCC(=O)O)NC(=O)[C@H](CCCNC(=N)N)NC(=O)[C@H](CCCNC(=N)N)NC(=O)[C@H](CCCNC(=N)N)NC(=O)[C@H](CCCNC(=N)N)NC(=O)[C@H](CCCNC(=N)N)NC(=O)[C@H](CCCNC(=N)N)NC(=O)[C@H](CCCNC(=N)N)NC(C)=O)C(=O)N[C@@H](CC(=O)O)C(=O)N[C@@H](Cc1c[nH]c2ccccc12)C(=O)NCC(=O)N1CCC[C@H]1C(=O)N[C@H](C(=O)N[C@@H](CO)C(=O)N[C@@H](CC(=O)O)C(=O)N[C@@H](CC(=O)O)C(=O)N[C@@H](CC(=O)O)C(N)=O)[C@@H](C)O (Ac-RRRRRRREDDDWIDWGPTSDDD-NH2),Ki,"Table 14, CPPs tagged peptides",65 ± 2 nM
CC[C@H](C)[C@H](NC(=O)[C@H](Cc1ccccc1)NC(=O)[C@H](CCC(=O)O)NC(=O)[C@@H](NC(=O)[C@H](CCC(=O)O)NC(C)=O)[C@@H](C)O)C(=O)N[C@@H](C)C(=O)N[C@@H](Cc1c[nH]c2ccccc12)C(=O)NCC(=O)N[C@@H](C)C(=O)N[C@H](C(=O)NCC(=O)N[C@@H](CC(=O)O)C(=O)N[C@@H](CCC(=O)O)C(=O)N[C@@H](CC(=O)O)C(N)=O)[C@@H](C)O [ETEFIAWGATGDED] (Ac-ETEFIAWGATGDED-NH2),Ki,"Table 8, Ala-, D-amino acids and N-methylation scans of AJAP-1WT",291 ± 6 nM
CC[C@H](C)[C@H](NC(=O)[C@H](Cc1ccccc1)NC(=O)[C@H](CCC(=O)O)NC(=O)[C@@H](NC(=O)[C@H](CCC(=O)O)NC(C)=O)[C@@H](C)O)C(=O)N[C@@H](C)C(=O)N[C@@H](Cc1c[nH]c2ccccc12)C(=O)N[C@@H](Cc1c[nH]cn1)C(=O)N1CCC[C@H]1C(=O)N[C@H](C(=O)NCC(=O)N[C@@H](CC(=O)O)C(=O)N[C@@H](CCC(=O)O)C(=O)N[C@@H](CC(=O)O)C(N)=O)[C@@H](C)O [ETEFIAWHPTGDED] (Ac-ETEFIAWHPTGDED-NH2),Ki,[5],240 ± 7 nM
CC(=O)N[C@@H](CO)C(=O)N[C@@H](CC(=O)O)C(=O)N[C@H](C(=O)N[C@@H](Cc1c[nH]c2ccccc12)C(=O)N[C@@H](Cc1c[nH]c2ccccc12)C(=O)NCC(=O)NCC(=O)N[C@@H](C)C(=O)N[C@@H](CC(=O)O)C(=O)N[C@H](C(=O)N[C@@H](CC(=O)O)C(=O)N[C@@H](Cc1ccc(O)cc1)C(=O)N[C@@H](C)C(=O)N[C@@H](CC(=O)O)C(N)=O)[C@@H](C)O)C(C)C (Ac-SDVWWGGADTDYAD-NH2),Ki,[2],2950 ± 82 nM
CC(=O)N[C@@H](CC(=O)O)C(=O)N[C@@H](CC(=O)O)C(=O)N[C@@H](CO)C(=O)N[C@@H](CC(=O)O)C(=O)N[C@H](C(=O)N[C@@H](Cc1c[nH]c2ccccc12)C(=O)N[C@@H](Cc1c[nH]c2ccccc12)C(=O)NCC(=O)NCC(=O)N[C@@H](C)C(=O)N[C@@H](CC(=O)O)C(=O)N[C@H](C(=O)N[C@@H](CC(=O)O)C(=O)N[C@@H](Cc1ccc(O)cc1)C(=O)N[C@@H](C)C(=O)N[C@@H](CC(=O)O)C(=O)NCC(N)=O)[C@@H](C)O)C(C)C (Ac-DDSDVWWGGADTDYADG-NH2),Ki,"Table 3, SPOT hit validation and previously reported peptides",687 ± 17 nM
CC[C@H](C)[C@H](NC(=O)[C@H](Cc1ccccc1)NC(=O)[C@H](CCC(=O)O)NC(=O)[C@@H](NC(=O)[C@H](CCC(=O)O)NC(C)=O)[C@@H](C)O)C(=O)N[C@@H](C)C(=O)N[C@@H](Cc1c[nH]c2ccccc12)C(=O)NCC(=O)N1CCC[C@H]1C(=O)N[C@H](C(=O)N[C@H](C(=O)N[C@@H](CO)C(=O)N[C@@H](CCCNC(=N)N)C(=O)N[C@@H](CCC(=O)O)C(=O)N[C@@H](CC(=O)O)C(N)=O)C(C)C)[C@@H](C)O [ETEFIAWGPTVSRED] (Ac-ETEFIAWGPTVSRED-NH2),Ki,[6],148 ± 6 nM
CC[C@H](C)[C@H](NC(=O)[C@H](C)NC(=O)[C@H](Cc1c[nH]c2ccccc12)NC(=O)[C@@H]1CCCN1C(C)=O)C(=O)N[C@H](C(=O)N[C@@H](Cc1c[nH]c2ccccc12)C(=O)NCC(=O)N1CCC[C@H]1C(=O)N[C@H](C(=O)NCC(=O)N[C@@H](CC(=O)O)C(=O)N[C@@H](CCC(=O)O)C(=O)N[C@@H](CC(=O)O)C(N)=O)[C@@H](C)O)C(C)C [PWAIVWGPTGDED] (Ac-PWAIVWGPTGDED-NH2),Ki,[6],222 ± 1 nM
CC(=O)N[C@@H](C)C(=O)N[C@@H](CC(=O)O)C(=O)N[C@@H](CC(=O)O)C(=O)N[C@@H](CO)C(=O)N[C@@H](CC(=O)O)C(=O)N[C@H](C(=O)N[C@@H](Cc1c[nH]c2ccccc12)C(=O)N[C@@H](Cc1c[nH]c2ccccc12)C(=O)NCC(=O)NCC(=O)N[C@@H](C)C(=O)N[C@@H](CC(=O)O)C(=O)N[C@H](C(=O)N[C@@H](CC(=O)O)C(N)=O)[C@@H](C)O)C(C)C (Ac-ADDSDVWWGGADTD-NH2),Ki,[4],803 ± 5 nM
CC(=O)N[C@@H](CCC(=O)O)C(=O)N[C@@H](CC(=O)O)C(=O)N[C@@H](CC(=O)O)C(=O)N[C@@H](CO)C(=O)N[C@@H](CC(=O)O)C(=O)N[C@H](C(=O)N[C@@H](Cc1c[nH]c2ccccc12)C(=O)N[C@@H](Cc1c[nH]c2ccccc12)C(=O)NCC(=O)NCC(=O)N[C@@H](C)C(=O)N[C@@H](CC(=O)O)C(=O)N[C@@H](C)C(=O)N[C@@H](CC(=O)O)C(N)=O)C(C)C (Ac-EDDSDVWWGGADAD-NH2),Ki,[4],480 ± 8 nM
